Tests used:
PWR-1E (Non-Cancerous) [1] = experiment: combination Emax (second highest fraction inhibited in the dose matrix, 72 h); higher = more inhibition; extreme values may be limits of the assay
Summary of the method: (§1)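 Cell lines in DMEM/F12 or RPMI with 10% FBS were plated in 1536-well plates, held 24 hours at 37°C, 5% CO2, then given two-drug dose matrices for 72 hours (DMSO typically 0.2%). Viability was read by CellTiter-Glo 2.0 luminescence and scaled as inhibition from 0 (vehicle wells) to 1 (blank wells). Combination Emax is the second-highest inhibition in the matrix; Bliss excess is observed combination effect minus expected EA + EB − EA·EB, EA and EB being single-agent effects.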

[2] = test system: NCI-H1915 (Non-Small Cell Lung Carcinoma); experiment: as above
Summary of the method: as §1

[3] = test system: HSC-4 (Oral Cavity Carcinoma); experiment: as above
Summary of the method: as §1

[4] = test system: NUGC-3 (Gastric Carcinoma); experiment: as above
Summary of the method: as §1

[5] = test system: OE19 (Esophageal Adenocarcinoma); experiment: as above
Summary of the method: as §1

[6] = test system: HGC-27 (Gastric Carcinoma); experiment: as above
Summary of the method: as §1

[7] = test system: OVCAR-4 (Ovarian Carcinoma); experiment: as above
Summary of the method: as §1

[8] = test system: NEC8 (Other Solid Carcinomas); experiment: as above
Summary of the method: as §1

[9] = test system: HOP-62 (Lung Adenocarcinoma); experiment: as above
Summary of the method: as §1

[10] = test system: KMOE-2 (Acute Myeloid Leukemia); experiment: as above
Summary of the method: as §1

[11] = test system: TE-1 (Esophageal Squamous Cell Carcinoma); experiment: as above
Summary of the method: as §1

[12] = test system: SCC-15 (Oral Cavity Carcinoma); experiment: as above
Summary of the method: as §1

[13] = test system: VA-ES-BJ (Other Solid Carcinomas); experiment: as above
Summary of the method: as §1

PWR-1E (Non-Cancerous) [14] = experiment: Bliss excess, mean over the matrix (fraction); higher = more synergy
Summary of the method: as §1

[15] = test system: NCI-H1915 (Non-Small Cell Lung Carcinoma); experiment: as above
Summary of the method: as §1

[16] = test system: OE19 (Esophageal Adenocarcinoma); experiment: as above
Summary of the method: as §1

[17] = test system: JVM-3 (B-Cell Non-Hodgkin's Lymphoma); experiment: as above
Summary of the method: as §1

[18] = test system: KMOE-2 (Acute Myeloid Leukemia); experiment: as above
Summary of the method: as §1

[19] = test system: TE-1 (Esophageal Squamous Cell Carcinoma); experiment: as above
Summary of the method: as §1

[20] = test system: VA-ES-BJ (Other Solid Carcinomas); experiment: as above
Summary of the method: as §1
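Wherever Bliss excess, mean over the matrix is given: after 72 h of two-drug dosing.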

Structure (SMILES) | combination Emax (PWR-1E (Non-Cancerous) [1]) | combination Emax [2] | combination Emax [3] | combination Emax [4] | combination Emax [5] | combination Emax [6] | combination Emax [7] | combination Emax [8] | combination Emax [9] | combination Emax [10] | combination Emax [11] | combination Emax [12] | combination Emax [13] | Bliss excess (PWR-1E (Non-Cancerous) [14]) | Bliss excess [15] | Bliss excess [16] | Bliss excess [17] | Bliss excess [18] | Bliss excess [19] | Bliss excess [20]
CN(CCO)CC[C@H](CSc1ccccc1)Nc1ccc(S(=O)(=O)NC(=O)c2ccc(N3CCC([C@@H](O)c4ccccc4-c4ccc(Cl)cc4)CC3)cc2)cc1S(=O)(=O)C(F)(F)F [AZD4320] + C1CN(CCC1(C(=O)N[C@@H](CCO)C2=CC=C(C=C2)Cl)N)C3=NC=NC4=C3C=CN4 [Capivasertib] (first compound max 1 µM, 7x7, partner max 3 µM) | 0.252 | 0.116 | 0.32 | 0.127 | 0.333 | 0.775 | 0.0826 | 0.0891 | 0.115 | 0.828 | 0.369 | 0.14 | 0.224 | -0.0067 | -0.0459 | -0.0479 | -0.0162 | -0.0435 | -0.0292 | -0.0376
CN(CCO)CC[C@H](CSc1ccccc1)Nc1ccc(S(=O)(=O)NC(=O)c2ccc(N3CCC([C@@H](O)c4ccccc4-c4ccc(Cl)cc4)CC3)cc2)cc1S(=O)(=O)C(F)(F)F [AZD4320] + C=CCn1c(=O)c2cnc(Nc3ccc(N4CCN(C)CC4)cc3)nc2n1-c1cccc(C(C)(C)O)n1 [AZD1775] (first compound max 1 µM, partner max 1 µM) | 0.338 | 0.853 | 0.585 | 0.764 | 0.33 | 0.543 | 0.662 | 0.414 | 0.458 | 1 | 0.824 | 0.551 | 0.458 | -0.0111 | 0.0125 | 0.0072 | -0.101 | 0.0656 | -0.0034 | 0.006
CN(CCO)CC[C@H](CSc1ccccc1)Nc1ccc(S(=O)(=O)NC(=O)c2ccc(N3CCC([C@@H](O)c4ccccc4-c4ccc(Cl)cc4)CC3)cc2)cc1S(=O)(=O)C(F)(F)F [AZD4320] + CCN(CCO)CCCOc1ccc2c(Nc3cc(CC(=O)Nc4cccc(F)c4)[nH]n3)ncnc2c1 [AZD2811] (first compound max 1 µM, 7x7, partner max 1 µM) | 0.843 | 0.31 | 0.517 | 0.498 | 0.854 | 0.96 | 0.389 | 0.159 | 0.359 | 0.934 | 0.655 | 0.346 | 0.291 | 0.0514 | 0.0393 | -0.0349 | 0.165 | 0.0171 | 0.0794 | -0.0259
CN(CCO)CC[C@H](CSc1ccccc1)Nc1ccc(S(=O)(=O)NC(=O)c2ccc(N3CCC([C@@H](O)c4ccccc4-c4ccc(Cl)cc4)CC3)cc2)cc1S(=O)(=O)C(F)(F)F [AZD4320] + C[C@@H]1COCCN1C2=NC(=NC(=C2)C3(CC3)[S@](=N)(=O)C)C4=C5C=CNC5=NC=C4 [AZD6738] (first compound max 1 µM, 7x7, partner max 10 µM) | 0.971 | 0.529 | 0.927 | 0.756 | 0.726 | 0.812 | 0.794 | 0.904 | 0.599 | 0.938 | 0.742 | 0.709 | 0.863 | -0.0313 | -0.044 | -0.0789 | -0.027 | -0.0399 | -0.004 | -0.012
CN(CCO)CC[C@H](CSc1ccccc1)Nc1ccc(S(=O)(=O)NC(=O)c2ccc(N3CCC([C@@H](O)c4ccccc4-c4ccc(Cl)cc4)CC3)cc2)cc1S(=O)(=O)C(F)(F)F [AZD4320] + C[C@@H](Nc1cc(F)cc(F)c1)c1cc(C(=O)N(C)C)cc2c(=O)cc(N3CCOCC3)oc12 [AZD8186] (first compound max 1 µM, 7x7, partner max 3 µM) | 0.592 | 0.455 | 0.852 | 0.777 | 0.489 | 0.64 | 0.322 | 0.341 | 0.602 | 0.887 | 0.532 | 0.447 | 0.296 | -0.0097 | 0.0202 | 0.0201 | 0.0456 | 0.0407 | -0.0549 | 0.0393
CN(CCO)CC[C@H](CSc1ccccc1)Nc1ccc(S(=O)(=O)NC(=O)c2ccc(N3CCC([C@@H](O)c4ccccc4-c4ccc(Cl)cc4)CC3)cc2)cc1S(=O)(=O)C(F)(F)F [AZD4320] + Cc1cc2ncnn2cc1Nc1ncc2c(n1)n(C1CCOCC1)c(=O)n2C [AZD7648] (first compound max 1 µM, 7x7, partner max 10 µM) | 0.0822 | 0.223 | 0.129 | 0.347 | 0.415 | 0.473 | 0.127 | 0.159 | 0.167 | 0.896 | 0.38 | 0.265 | 0.174 | -0.0352 | -0.0254 | -0.0219 | -0.0214 | -0.0058 | -0.0443 | -0.0364
CN(CCO)CC[C@H](CSc1ccccc1)Nc1ccc(S(=O)(=O)NC(=O)c2ccc(N3CCC([C@@H](O)c4ccccc4-c4ccc(Cl)cc4)CC3)cc2)cc1S(=O)(=O)C(F)(F)F [AZD4320] + Cn1cnc2c(F)c(Nc3ccc(Br)cc3Cl)c(C(=O)NOCCO)cc21 [Selumetinib] (first compound max 1 µM, 7x7, partner max 3 µM) | 0.601 | 0.583 | 0.797 | 0.762 | 0.314 | 0.381 | 0.381 | 0.341 | 0.536 | 1 | 0.554 | 0.548 | 0.203 | 0.0024 | 0.0324 | -0.0202 | -0.0225 | 0.0415 | 0.0819 | 
Cc1cc2ncnn2cc1Nc1ncc2c(n1)n(C1CCOCC1)c(=O)n2C [AZD7648] + C=CCn1c(=O)c2cnc(Nc3ccc(N4CCN(C)CC4)cc3)nc2n1-c1cccc(C(C)(C)O)n1 [AZD1775] (first compound max 10 µM, partner max 1 µM) | 0.562 | 0.553 | 0.41 | 0.587 | 0.465 | 0.771 | 0.607 | 0.123 | 0.241 | 0.924 | 0.621 | 0.439 | 0.453 | 0.0256 | -0.0738 | -0.0099 | -0.0686 | -0.0329 | -0.0045 | -0.008
Cc1nc(Nc2ncc(C(=O)Nc3c(C)cccc3Cl)s2)cc(N2CCN(CCO)CC2)n1 [Dasatinib] + CC(=O)Nc1cccc(-n2c(=O)n(C3CC3)c(=O)c3c(Nc4ccc(I)cc4F)n(C)c(=O)c(C)c32)c1 [Trametinib] (first compound max 2 µM, 7x7, partner max 1 µM) | 0.897 | 1 | 0.423 | 0.721 | 0.797 | 0.726 | 0.62 | 0 | 0.749 | 1 | 0.791 | 0.739 | 0.441 | 0.0481 | 0.0564 | -0.063 |  | -0.0125 | -0.0067 | -0.033
COc1cc2ncnc(Nc3ccc(F)c(Cl)c3)c2cc1OCCCN1CCOCC1 [Gefitinib] + CC(C)n1c(=O)n(C)c2cnc3cc(F)c(-c4ccc(OCCCN5CCCCC5)nc4)cc3c21 [AZD1390] (first compound max 10 µM, 7x7, partner max 0.3 µM) | 0.205 | 0.213 | 0.0642 | 0.486 | 0.943 | 0.238 | 0.0866 | 0 | 0.0723 | 0.0507 | 0.368 | 0.39 | 0.0868 | -0.0234 | -0.0433 | -0.0181 |  | -0.0589 | -0.0471 | -0.0513
C[C@@H](c1ccc2nccn2c1)n1nnc2ncc(-c3cnn(C)c3)nc21 [Savolitinib] + CC1(C)CCC(CN2CCN(c3ccc(C(=O)NS(=O)(=O)c4ccc(NCC5CCOCC5)c([N+](=O)[O-])c4)c(Oc4cnc5[nH]ccc5c4)c3)CC2)=C(c2ccc(Cl)cc2)C1 [Venetoclax] (first compound max 1 µM, 7x7, partner max 1 µM) | 0.0879 | 0.145 | 0 | 0.181 | 0.166 | 0.147 | 0.0979 | 0.117 | 0.0599 | 0.0977 | 0.0986 | 0.191 | 0.152 | -0.034 | -0.0456 | -0.0377 |  | -0.0414 | -0.0546 | -0.0433
C[C@@H](c1ccc2nccn2c1)n1nnc2ncc(-c3cnn(C)c3)nc21 [Savolitinib] + Cc1c2c(nn1C)CSCc1cc(n(C)n1)CSc1cc(c3ccccc3c1)OCCCc1c(C(=O)O)n(C)c3c-2c(Cl)ccc13 [AZD5991] (first compound max 1 µM, 7x7, partner max 1 µM) | 0.186 | 0.0983 | 0.236 | 0.23 | 0.235 | 0.238 | 0.138 | 0.273 | 0.154 | 0.113 | 0.162 | 0.186 | 0.218 | -0.0664 | -0.0587 | -0.093 |  | -0.0312 | -0.0748 | -0.0299

Source: the supplement of paper PMC11061612
